# Earlier results in PMC3652662 (Journal of molecular recognition : JMR, 2009).
# Tested on: HIV-1YU2 gp120
# Details: SPR direct binding, HIV-1 Env YU2 (clade B) gp120; ref Gopi et al. (2008)
sequence,measurement,value
RINNIPWSEAMM [Peptide 12p1],ka,13600 M⁻¹ s⁻¹
